# According to ChEMBL document CHEMBL1201862, “PubChem BioAssay data set” (2004):
# Activity calls are given as the source filed them.
# Key:
# [1] = molecular target: Glycogen synthase kinase-3 beta (Homo sapiens, UniProt P49841); experiment: inhibition of human GSK3B activity – biochemical, microfluidics, dry powder samples, set 2, dose response (AID 623989); format: functional
# [2] = molecular target: Glycogen synthase kinase-3 alpha (Homo sapiens, UniProt P49840); experiment: GSK3A enzyme blockers, homolog specificity check – biochemical, microfluidics, dry powder samples, set 2, selectivity assay for GSK3beta inhibitor project, dose response (AID 623978); format: functional
# [3] = molecular target: Dual specificity tyrosine-phosphorylation-regulated kinase 1A (Rattus norvegicus, UniProt Q63470); format: biochemical, Homo sapiens
# [4] = molecular target: T1, Cyclin-dependent kinase 5/CDK5 activator 1 (Homo sapiens, UniProt Q00535); experiment: blockade of human CDK5 activity – biochemical, cherry-picked samples, set 2, dose response (AID 504545)
# T1 sequence (Q00535 whole entry): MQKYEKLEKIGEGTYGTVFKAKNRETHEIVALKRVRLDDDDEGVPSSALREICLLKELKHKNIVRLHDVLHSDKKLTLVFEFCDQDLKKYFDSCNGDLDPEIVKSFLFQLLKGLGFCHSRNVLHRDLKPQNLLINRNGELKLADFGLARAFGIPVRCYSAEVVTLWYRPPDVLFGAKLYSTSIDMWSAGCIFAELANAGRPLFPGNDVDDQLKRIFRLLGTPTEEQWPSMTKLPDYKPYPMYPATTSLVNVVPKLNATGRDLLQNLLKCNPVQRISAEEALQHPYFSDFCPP
# T1 sequence (Q15078 whole entry, further chain): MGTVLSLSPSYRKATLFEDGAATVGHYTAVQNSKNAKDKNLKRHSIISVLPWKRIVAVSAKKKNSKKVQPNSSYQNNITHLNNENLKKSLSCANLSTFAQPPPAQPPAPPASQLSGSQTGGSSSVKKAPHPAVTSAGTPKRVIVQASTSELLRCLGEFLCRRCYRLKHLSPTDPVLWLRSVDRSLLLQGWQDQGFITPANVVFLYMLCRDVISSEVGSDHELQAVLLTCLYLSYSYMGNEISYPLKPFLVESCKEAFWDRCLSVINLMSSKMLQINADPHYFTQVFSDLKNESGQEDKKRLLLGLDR
# [5] = viability loss in THP-1 monocytes – THP-1 cells, cytotoxicity control for Vif-APOBEC3G degradation inhibitor project, dose response (AID 1117359); format: functional; settings: THP-1
# [6] = molecular target: T1, Cyclin-dependent kinase 5/CDK5 activator 1; experiment: inhibitors of human CDK5 activity – biochemical, microfluidic mobility shift, dry powder, set 2, selectivity assay for GSK3beta inhibitor project, dose response (AID 623979); format: functional
# [7] = viability loss in HepG2 hepatoma cells – cell-based, ATP luminescence, cherry-pick, activator set 2, cytotoxicity control, dose response (AID 1053143); format: functional
# [8] = molecular target: Lymphokine-activated killer T-cell-originated protein kinase (Homo sapiens, UniProt Q96KB5); format: functional;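 note: value comes from a kinase panel screen in which TOPK was one of the panel members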
# [9] = molecular target: Testis-specific serine/threonine-protein kinase 2 (Homo sapiens, UniProt Q96PF2); format: functional;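 note: part of the Navigating the Kinome panel, target entry STK22B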
# Chain of Testis-specific serine/threonine-protein kinase 2 (Q96PF2 whole entry): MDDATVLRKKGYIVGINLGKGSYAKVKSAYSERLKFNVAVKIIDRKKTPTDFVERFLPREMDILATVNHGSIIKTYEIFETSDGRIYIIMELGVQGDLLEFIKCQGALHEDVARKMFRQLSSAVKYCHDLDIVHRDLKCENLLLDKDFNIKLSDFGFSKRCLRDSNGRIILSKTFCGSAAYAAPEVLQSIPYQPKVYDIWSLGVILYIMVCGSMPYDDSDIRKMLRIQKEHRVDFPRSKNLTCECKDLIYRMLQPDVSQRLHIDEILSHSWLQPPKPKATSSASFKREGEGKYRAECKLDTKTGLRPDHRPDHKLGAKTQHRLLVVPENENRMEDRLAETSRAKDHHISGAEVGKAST
# [10] = molecular target: Tyrosine-protein kinase receptor UFO (Homo sapiens, UniProt P30530); format: functional
# Chain of Tyrosine-protein kinase receptor UFO (P30530 whole entry): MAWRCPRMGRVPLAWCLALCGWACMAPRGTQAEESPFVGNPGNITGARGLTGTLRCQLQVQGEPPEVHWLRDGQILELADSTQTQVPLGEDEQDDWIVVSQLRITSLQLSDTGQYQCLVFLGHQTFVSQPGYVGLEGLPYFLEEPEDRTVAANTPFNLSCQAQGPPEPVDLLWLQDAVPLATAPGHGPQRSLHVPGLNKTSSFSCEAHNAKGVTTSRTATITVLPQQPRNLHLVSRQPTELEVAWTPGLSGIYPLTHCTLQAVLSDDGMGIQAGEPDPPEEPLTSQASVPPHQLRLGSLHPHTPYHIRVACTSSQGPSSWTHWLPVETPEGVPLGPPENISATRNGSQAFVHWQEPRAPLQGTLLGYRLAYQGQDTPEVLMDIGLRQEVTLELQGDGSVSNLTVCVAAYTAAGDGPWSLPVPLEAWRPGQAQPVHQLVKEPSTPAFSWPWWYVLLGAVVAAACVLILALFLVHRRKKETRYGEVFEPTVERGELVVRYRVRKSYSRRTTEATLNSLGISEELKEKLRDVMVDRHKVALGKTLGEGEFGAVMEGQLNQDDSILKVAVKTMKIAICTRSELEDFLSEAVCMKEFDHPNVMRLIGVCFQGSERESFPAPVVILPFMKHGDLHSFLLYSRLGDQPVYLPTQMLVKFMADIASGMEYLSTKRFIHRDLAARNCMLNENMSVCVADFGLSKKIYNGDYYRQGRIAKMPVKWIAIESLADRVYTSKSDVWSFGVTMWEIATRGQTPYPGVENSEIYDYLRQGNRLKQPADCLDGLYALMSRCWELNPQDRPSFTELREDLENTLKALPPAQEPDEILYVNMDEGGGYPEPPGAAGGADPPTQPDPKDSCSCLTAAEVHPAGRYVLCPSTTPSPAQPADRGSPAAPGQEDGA
# [11] = molecular target: Cell division cycle 7-related protein kinase (Homo sapiens, UniProt O00311); format: functional;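 note: value obtained from a kinome-wide kinase panel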
# Chain of Cell division cycle 7-related protein kinase (O00311 whole entry): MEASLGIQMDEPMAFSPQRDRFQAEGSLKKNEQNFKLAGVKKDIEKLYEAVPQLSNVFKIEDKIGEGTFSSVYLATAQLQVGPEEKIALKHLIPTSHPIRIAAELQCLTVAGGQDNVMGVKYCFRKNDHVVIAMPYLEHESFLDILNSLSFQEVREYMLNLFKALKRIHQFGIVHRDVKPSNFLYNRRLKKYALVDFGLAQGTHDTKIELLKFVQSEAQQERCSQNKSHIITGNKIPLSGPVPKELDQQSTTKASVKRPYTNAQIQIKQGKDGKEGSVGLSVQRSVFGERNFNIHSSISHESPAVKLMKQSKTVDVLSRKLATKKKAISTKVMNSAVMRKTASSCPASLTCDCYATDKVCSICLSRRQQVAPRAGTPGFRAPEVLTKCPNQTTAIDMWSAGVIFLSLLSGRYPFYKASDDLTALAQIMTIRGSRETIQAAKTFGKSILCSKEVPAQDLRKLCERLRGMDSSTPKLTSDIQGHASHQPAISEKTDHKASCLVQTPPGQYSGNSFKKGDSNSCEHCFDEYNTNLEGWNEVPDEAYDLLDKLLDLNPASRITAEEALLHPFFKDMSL
# [12] = molecular target: Dual specificity tyrosine-phosphorylation-regulated kinase 4 (Homo sapiens, UniProt Q9NR20); format: functional
# [13] = molecular target: Protein kinase C zeta type (Homo sapiens, UniProt Q05513); format: functional;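 note: measured as one member of a broad kinase profiling panel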
# [14] = molecular target: Tyrosine-protein kinase Fyn (Homo sapiens, UniProt P06241); format: functional
# [15] = molecular target: Protein-tyrosine kinase 6 (Homo sapiens, UniProt Q13882); format: functional
# [16] = molecular target: Dual specificity tyrosine-phosphorylation-regulated kinase 3 (Homo sapiens, UniProt O43781); format: functional;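 note: measured as one member of a broad kinase panel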
# Chain of Dual specificity tyrosine-phosphorylation-regulated kinase 3 (O43781 whole entry): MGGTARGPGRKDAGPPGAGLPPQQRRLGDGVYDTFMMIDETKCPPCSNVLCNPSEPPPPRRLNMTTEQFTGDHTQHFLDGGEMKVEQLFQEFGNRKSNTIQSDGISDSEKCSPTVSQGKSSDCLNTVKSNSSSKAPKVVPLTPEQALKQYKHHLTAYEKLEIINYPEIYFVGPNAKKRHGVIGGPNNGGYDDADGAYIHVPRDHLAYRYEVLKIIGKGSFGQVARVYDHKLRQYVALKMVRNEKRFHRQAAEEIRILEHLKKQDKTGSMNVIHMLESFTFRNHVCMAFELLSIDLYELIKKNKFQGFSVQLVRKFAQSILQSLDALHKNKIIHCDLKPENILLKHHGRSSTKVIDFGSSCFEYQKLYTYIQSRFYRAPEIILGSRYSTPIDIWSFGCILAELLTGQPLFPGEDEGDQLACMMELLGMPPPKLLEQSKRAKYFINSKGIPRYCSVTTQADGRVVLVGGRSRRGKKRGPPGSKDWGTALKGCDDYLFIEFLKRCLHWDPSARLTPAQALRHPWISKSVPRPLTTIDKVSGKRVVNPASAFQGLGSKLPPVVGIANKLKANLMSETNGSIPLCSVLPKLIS
# [17] = molecular target: Proto-oncogene tyrosine-protein kinase Src (Homo sapiens, UniProt P12931); format: functional;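 note: SRC entry within a kinome-wide kinase profiling panel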
# [18] = molecular target: MAP kinase-activated protein kinase 3 (Homo sapiens, UniProt Q16644); format: functional;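 note: value comes from a kinome-wide profiling panel in which MAPKAPK3 is one of the panel members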
# [19] = molecular target: Eukaryotic elongation factor 2 kinase (Homo sapiens, UniProt O00418); format: functional
# Chain of Eukaryotic elongation factor 2 kinase (O00418 whole entry): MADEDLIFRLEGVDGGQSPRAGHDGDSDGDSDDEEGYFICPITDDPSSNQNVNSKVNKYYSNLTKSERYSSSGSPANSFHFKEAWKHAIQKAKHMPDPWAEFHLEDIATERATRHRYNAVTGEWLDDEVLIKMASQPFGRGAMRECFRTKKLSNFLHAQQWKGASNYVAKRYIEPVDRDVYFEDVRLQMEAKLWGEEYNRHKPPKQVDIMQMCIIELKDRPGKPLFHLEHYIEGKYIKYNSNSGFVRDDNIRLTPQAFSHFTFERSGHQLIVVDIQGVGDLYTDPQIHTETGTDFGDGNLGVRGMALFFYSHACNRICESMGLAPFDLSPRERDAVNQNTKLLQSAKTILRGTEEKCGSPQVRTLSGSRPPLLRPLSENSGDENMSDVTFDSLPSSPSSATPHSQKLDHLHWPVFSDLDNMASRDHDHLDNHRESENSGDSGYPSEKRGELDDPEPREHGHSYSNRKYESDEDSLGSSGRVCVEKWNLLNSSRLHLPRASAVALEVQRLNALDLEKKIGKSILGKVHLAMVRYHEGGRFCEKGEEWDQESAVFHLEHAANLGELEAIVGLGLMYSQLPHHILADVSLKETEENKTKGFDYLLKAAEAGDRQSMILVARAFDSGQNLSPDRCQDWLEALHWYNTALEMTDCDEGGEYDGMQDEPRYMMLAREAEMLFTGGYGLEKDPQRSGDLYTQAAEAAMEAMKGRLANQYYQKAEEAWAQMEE
# [20] = molecular target: Cyclin-dependent kinase 1 (Homo sapiens, UniProt P06493); format: functional;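 note: Kinome-wide panel profiling, with the target listed as panel member CDC2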
# Chain of Cyclin-dependent kinase 1 (P06493 whole entry): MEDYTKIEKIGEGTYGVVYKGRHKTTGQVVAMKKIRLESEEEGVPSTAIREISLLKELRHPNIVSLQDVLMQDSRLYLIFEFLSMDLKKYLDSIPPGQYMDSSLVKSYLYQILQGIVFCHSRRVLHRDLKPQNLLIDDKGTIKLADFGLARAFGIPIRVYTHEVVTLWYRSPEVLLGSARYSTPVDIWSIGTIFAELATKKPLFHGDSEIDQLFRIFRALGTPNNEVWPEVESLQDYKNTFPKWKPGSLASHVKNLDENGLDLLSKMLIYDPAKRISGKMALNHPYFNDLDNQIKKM
# [21] = molecular target: G protein-coupled receptor kinase 5 (Homo sapiens, UniProt P34947); experiment: Navigating the Kinome. Panel member name: GPRK5; format: functional
# [22] = molecular target: Protein kinase C gamma type (Homo sapiens, UniProt P05129); format: functional
smiles,measurement,setting,value
Nc1nc(Nc2ccccc2)sc1C(=O)c1ccccc1,AC50,[1],0.036 µM (active)
same,AC50,[2],0.168 µM (active)
same,AC50,[3],0.811 µM (active)
same,AC50,[4],2.27 µM (active)
same,CC50,[5],14 µM (active)
same,AC50,[6],0.19 µM (active)
same,AC50,[7],18.9 µM (active)
COc1cc2c(Oc3ccc4[nH]c(C)cc4c3F)ncnc2cc1OCCCN1CCCC1 [CEDIRANIB],Ki,[8],> 10 µM (inactive)
same,Ki,[9],> 1.58 µM (inactive)
same,Ki,[10],0.316 µM (active)
same,Ki,[11],> 1.26 µM (inactive)
same,Ki,[12],> 7.94 µM (inactive)
same,Ki,[13],> 7.94 µM (inactive)
same,Ki,[14],0.501 µM (active)
same,Ki,[15],0.0398 µM (active)
same,Ki,[16],> 6.31 µM (inactive)
same,Ki,[17],0.0501 µM (active)
same,Ki,[18],> 10 µM (inactive)
same,Ki,[19],> 3.98 µM (inactive)
same,Ki,[20],> 7.94 µM (inactive)
same,Ki,[21],> 3.98 µM (inactive)
same,Ki,[22],> 7.94 µM (inactive)
